Test results from PubChem BioAssay AID1996.
≈ marks a conversion by molar mass, not a printed value.

Settings: buffer; pH 7.4; 200.0 µM

| Compound | solubility kinetic |
| --- | --- |
| Cc1nn(-c2ccccc2)c(C)c1CN | > 30.2 µg/mL |
| CN(Cc1nc(-c2ccc(C(F)(F)F)cc2)no1)C1CCOCC1 | 37.3 µg/mL (≈ 109 µM) |
| COCCNC(=O)c1cc(C(=O)CC(C)C)c[nH]1 | > 37.8 µg/mL |
| NC(=O)c1cccc(NC(=O)Nc2ccc(Cl)cc2)c1 | 4.6 µg/mL (≈ 15.9 µM) |
| CCOC(=O)c1cc([N+](=O)[O-])sc1NC(=O)CC | 5.3 µg/mL (≈ 19.5 µM) |
| O=[N+]([O-])c1cc([N+](=O)[O-])c2nonc2c1Nc1ccc(O)cc1 | > 47.6 µg/mL |
| COc1ccc(O)c(CN2CCN(CCc3ccccc3)C(CCO)C2)c1 (stereo not given) | 54 µg/mL (≈ 146 µM) |
| Cc1ccc(S(=O)(=O)Nc2ccc(O)c3cccnc23)cc1 | 19 µg/mL (≈ 60.4 µM) |
| O=C(COC(=O)c1cc(S(=O)(=O)N2CCOCC2)ccc1F)NCc1ccc2c(c1)OCO2 | > 72.1 µg/mL |
| Cc1ccc(S(=O)(=O)N(C)CC(=O)N2CCCCCC2)cc1 | 48.4 µg/mL (≈ 149 µM) |
| CC(C)(C)NC(=O)COC(=O)CCC(=O)c1ccc(F)cc1 | > 46.4 µg/mL |
| Cc1cc(=O)[nH]c(SCC(=O)N2CCCC(C)C2)n1 (stereo not given) | > 42.2 µg/mL |
| CC(C)NC(=O)NC(=O)COC(=O)c1cc[n+]([O-])cc1 | > 42.2 µg/mL |
| O=[N+]([O-])c1cccnc1Sc1ccccc1Cl | 1.7 µg/mL (≈ 6.37 µM) |
| Cc1cccc(NC(=O)[C@@H]2CCCN2C(=O)OC(C)(C)C)c1C | 39.6 µg/mL (≈ 124 µM) |
| Clc1cccc(CNCC2CCCO2)c1Cl (stereo not given) | 33.3 µg/mL (≈ 128 µM) |
| CC1CN(C(=O)CCS(=O)(=O)c2ccccc2)CC(C)O1 (stereo not given) | 43.2 µg/mL (≈ 139 µM) |
| O=C(COC(=O)c1ccc[n+]([O-])c1)Nc1ccc([N+](=O)[O-])cc1Cl | > 52.8 µg/mL |
| Nc1c(Cl)ncnc1NCc1ccccc1 | 32.6 µg/mL (≈ 139 µM) |
| CC(C)Nc1nc(NC2CCCC2)nc(N2CCOCC2)n1 | 16.3 µg/mL (≈ 53.2 µM) |
| CCc1ccccc1NC(=O)C1CC(c2ccc(OC)cc2)=NO1 (stereo not given) | 45.3 µg/mL (≈ 140 µM) |
| O=C(COC(=O)c1cnc(Cl)c(Cl)c1)NC1CC1 | > 43.4 µg/mL |

| Compound | solubility kinetic |
| --- | --- |
| NC(=O)c1nc(-c2ccccc2)c(-c2ccccc2)[nH]c1=O | > 43.7 µg/mL |
| N#C/C(=C\c1ccc(OCC(N)=O)cc1)C(=O)NC1CC1 | > 42.8 µg/mL |
| COc1ccc(-c2ccccc2)cc1NC(=O)c1cccs1 | 1.2 µg/mL (≈ 3.88 µM) |
| COc1ccc(NC(C)=O)cc1NC(=O)c1ccc(C#N)cc1 | > 46.4 µg/mL |
| CC(=O)Nc1ccc(SCC(=O)NC(=O)c2ccc(S(=O)(=O)N(C)C)cc2)cc1 | > 65.3 µg/mL |
| Cl.Oc1cccc(Nc2c3ccccc3nc3ccccc23)c1 | 0.7 µg/mL |
| Cc1ccc(S(=O)(=O)NCCN2CCOCC2)c(C)c1.Cl | > 50.2 µg/mL |
| CC(C)[C@H](NC(=O)N1CC(=O)Nc2ccccc21)C(=O)N1CCC[C@@H]1C(=O)O | > 58.3 µg/mL |
| COc1cccc(CC(=O)Nc2ccc3c(c2)CCC3)c1 | 8.3 µg/mL (≈ 29.5 µM) |
| O=C(NCC(c1ccco1)N1CCCCC1)c1ccc([N+](=O)[O-])s1 (stereo not given) | > 52.4 µg/mL |
| COc1ccc(OC)c(NC(=O)NCCc2cccc(Cl)c2)c1 | 1.9 µg/mL (≈ 5.67 µM) |
| Cc1cccc(NC(=O)NCC(c2ccco2)N2CCCCC2)c1 (stereo not given) | > 49.1 µg/mL |
| CCC(C)C(NC(=O)c1ccccc1NC(=O)c1ccccc1)C(=O)O (stereo not given) | 50.7 µg/mL (≈ 143 µM) |
| Cl.O=C(/C=C/c1cccc(F)c1)NCCCn1ccnc1 | > 46.5 µg/mL |
| CN1CCN(C(=O)CCc2nc(-c3ccc(Cl)cc3)no2)CC1 | > 50.2 µg/mL |
| COC(=O)c1ccccc1N=Nc1c(N)n[nH]c1N | > 39 µg/mL |
| Cc1ccc(CCN2CC(C(=O)NCCN(C)C)CC2=O)cc1 (stereo not given) | > 47.6 µg/mL |
| Fc1ccc(CNC(=S)NCc2ccc(F)cc2)cc1 | 6.4 µg/mL (≈ 21.9 µM) |
| CC(C)=CC(=O)OCC(=O)NC1CCCc2ccccc21 (stereo not given) | 25 µg/mL (≈ 87 µM) |
| O=C(Nc1c[nH]c(=O)[nH]c1=O)c1cccc(F)c1 | 12.2 µg/mL (≈ 49 µM) |
| COCc1cc(=O)[nH]c(N2CCN(C(=O)c3ccco3)CC2)n1 | > 47.7 µg/mL |
| CNc1nnc(-c2ccc(OC)cc2)s1 | > 33.2 µg/mL |

| Compound | solubility kinetic |
| --- | --- |
| Cn1nnc(NC(=O)c2ccc(Br)o2)n1 | > 40.8 µg/mL |
| COC(=O)CCSC(=S)N1CCOCC1 | > 37.4 µg/mL |
| CC(C)N(c1ccccc1)c1ccc(NC(=S)NCCN(C)C)cc1 | 44 µg/mL (≈ 123 µM) |
| COc1ccccc1CC(=O)NCc1csc(-c2cccs2)n1 | 46 µg/mL (≈ 134 µM) |
| CCOC(=O)c1sc(NC(=O)CSC(=S)N2CCOCC2)nc1C | 0.6 µg/mL (≈ 1.54 µM) |
| CC1Cc2ccccc2N1C(=O)COC(=O)c1ccc(O)cc1 (stereo not given) | 5.1 µg/mL (≈ 16.4 µM) |
| O=C(Nc1ccc2c(c1)C(=O)OC2)c1ccccc1Cl | 41 µg/mL (≈ 143 µM) |
| O=C(NCC(c1ccco1)N1CCOCC1)c1ccc(Cl)cc1 (stereo not given) | > 50.2 µg/mL |
| O=C(O)c1cncc(SCc2ccccc2)n1 | 34.5 µg/mL (≈ 140 µM) |
| O=C(Nc1nccs1)c1ccc(Cl)nc1 | > 36 µg/mL |
| COc1ccc(NC(=O)C2C3C=CC(O3)C2C(=O)O)cc1 (stereo not given) | > 43.4 µg/mL |
| COc1ccc(CNC(=O)C(Cc2ccccc2)n2cccc2)cc1 (stereo not given) | 7.8 µg/mL (≈ 23.3 µM) |
| CC(=O)c1c(C)oc2ccc(NS(=O)(=O)c3ccccc3)cc12 | < 0.7 µg/mL |
| CCOC(=O)c1sc(=NC(=O)COc2ccccc2)n(C)c1C | 1.4 µg/mL (≈ 4.19 µM) |
| Cc1ccc2c(c1)N(Cc1cccc(C#N)c1)C=NS2(=O)=O | 8.1 µg/mL (≈ 26 µM) |
| CCN1C(=O)CSC1=Nc1cccc(C(=O)O)c1 | > 39.6 µg/mL |
| O=C(COC(=O)c1ccccc1F)Nc1ccc(S(=O)(=O)N2CCOCC2)cc1 | 38 µg/mL (≈ 90 µM) |
| Cc1ccnc(Nc2nc(-c3ccc(O)cc3)cs2)c1 | 3.9 µg/mL (≈ 13.8 µM) |
| COc1cc(NC(=O)C(c2ccccc2)c2ccccc2)c(C(=O)O)cc1OC | > 58.7 µg/mL |
| CC1CCC(NC(=O)c2cc(Cl)nc3ccccc23)CC1 (stereo not given) | 2.5 µg/mL (≈ 8.26 µM) |
| Cc1ccc(C)c(NC(=S)N2CCN(c3ccccn3)CC2)c1 | 14.1 µg/mL (≈ 43.2 µM) |
| CC(C)CCn1c2ccccc2c2cc(CC(N)=O)ccc21 | 0.4 µg/mL (≈ 1.36 µM) |

| Compound | solubility kinetic |
| --- | --- |
| CCc1ccccc1NC(=O)CCN1C(=O)C2CC=CCC2C1=O (stereo not given) | > 49 µg/mL |
| COC(=O)COc1c(/C=C\c2nc(O)c([N+](=O)[O-])c(=O)[nH]2)cccc1OC | > 56.6 µg/mL |
| COCCCNc1nc(N)c([N+](=O)[O-])c(Nc2ccccc2OC)n1 | 1 µg/mL (≈ 2.87 µM) |
| CC(C)c1ccc2oc(=O)cc(CN3CCOCC3)c2c1 | 41.9 µg/mL (≈ 146 µM) |
| O=C(CN1CCN(Cc2ccccc2)CC1)Nc1ccccc1 | > 46.4 µg/mL |
| Cc1ccc(C(=O)N2CCN(Cc3ccccc3)CC2)o1 | > 42.7 µg/mL |
| Cn1c(=O)n(C)c2cc(NC(=O)COc3ccccc3)ccc21 | > 46.7 µg/mL |
| CN(C(=O)COc1ncnc2sccc12)c1ccccc1 | 39.4 µg/mL (≈ 132 µM) |
| O=C(c1cc(F)c(F)cc1Cl)N1CCN(c2ncccn2)CC1 | 49.3 µg/mL (≈ 146 µM) |
| Cn1cc([N+](=O)[O-])cc1-c1nc2ccccc2n1C | > 38.4 µg/mL |
| O=C(NC(=S)Nc1cccc(O)c1)C1CCCCC1 | > 41.8 µg/mL |
| O=C(O)CC(NC(=O)C12CC3CC(CC(C3)C1)C2)c1ccc(F)cc1 (stereo not given) | > 51.8 µg/mL |
| COc1ccc(C(C)=O)cc1Cc1c(O)[nH]c(=S)[nH]c1=O | > 46 µg/mL |
| Cc1nc(NC(=O)/C=C/c2ccccc2)sc1C(=O)NCCO | 12.9 µg/mL (≈ 38.9 µM) |
| Cc1cccc(N=C2NC(=O)C(CO)(CO)S2)c1 | 22.4 µg/mL (≈ 84.1 µM) |
| CN(C)S(=O)(=O)c1cc(NC(=O)COC(=O)c2nc(Cl)ccc2Cl)ccc1Cl | 52.7 µg/mL (≈ 113 µM) |
| CC(C)(C)c1csc(NC(=O)CSC2=NCCS2)n1 | 10.6 µg/mL (≈ 33.6 µM) |
| CCCOc1cc(C)c(S(=O)(=O)NCc2cccs2)cc1C | 9.1 µg/mL (≈ 26.8 µM) |
| CC(=O)Nc1ccc(NC(=O)CN2C(=O)NC3(CCCCCCC3)C2=O)cc1 | 45.1 µg/mL (≈ 117 µM) |
